Test results as given in patent US11827628B2, “Compositions and methods for inhibition of the JAK pathway” (Rigel Pharmaceuticals, Inc., priority 2005, dated 2023).
Read-outs that look alike come from different tables or passages of the source.

Tested on: IL-4 stimulated expression of CD23 in human Ramos B cells (JAK-1 and JAK-3)
Test: Assay for Ramos B-Cell Line Stimulated with IL-4 (CD23 upregulation, FACS)
Assay type: cell-based
Conditions: Ramos B-cell line stimulated with IL-4, CD23 expression by FACS, read-out: IC50, Example 41
Text: One means of assaying for such inhibition is detection of the effect of the 2,4-substituted pyrimidinediamine compounds on the upregulation of downstream gene products. In the Ramos/IL4 assay, B-cells are stimulated with the cytokine Interleukin-4 (IL-4) leading to the activation of the JAK/Stat pathway through phosphorylation of the JAK family kinases, JAK1 and JAK3, which in turn phosphorylate and activate the transcription factor Stat-6. […] To study the effect of inhibitors (e.g., the 2,4-substituted pyrimindinediamine compounds described herein) on the JAK1 and JAK3 kinases, human Ramos B cells are stimulated with human IL-4. Twenty to 24 hours post stimulation, cells are stained for upregulation of CD23 and analyzed using flow cytometry (FACS). […] An exemplary assay of this type is described in greater detail in Example 41
B-cells stimulated with cytokine Interleukin-4 (IL-4) activate the JAK/Stat pathway through phosphorylation of the JAK family kinases, JAK-1 and JAK-3, which in turn phosphorylate and activate the transcription factor Stat-6. […] To study the effect of inhibitors on the JAK family kinases, human Ramos B cells are stimulated with human IL-4.
The Ramos B-cell line was acquired from ATCC (ATCC Catalog No. CRL-1596). The cells were cultured in RPMI 1640 (Cellgro, MediaTech, Inc., Herndon, VA, Cat No. 10-040-CM) with 10% fetal bovine serum (FBS), heat inactivated (JRH Biosciences, Inc, Lenexa, Kansas, Cat No. 12106-500M) according to ATCC propagation protocol. Cells were maintained at a density of 3.5×10^5. The day before the experiment, Ramos B-cells were diluted to 3.5×10^5 cells/mL to ensure that they were in a logarithmic growth phase.
Cells were spun down and suspended in RPMI with 5% serum. 5×10^4 cells were used per point in a 96-well tissue culture plate. Cells were pre-incubated with compound or DMSO (Sigma-Aldrich, St. Louis, MO, Cat No. D2650) vehicle control for 1 hour in a 37° C. incubator. Cells were then stimulated with IL-4 (Peprotech Inc., Rocky Hill, NJ, Cat No. 200-04) for a final concentration of 50 units/mL for 20-24 hours. Cells were then spun down and stained with anti-CD23-PE(BD Pharmingen, San Diego, CA, Cat No. 555711) and analyzed by FACS. Detection was performed using a BD LSR I System Flow Cytometer, purchased from Becton Dickinson Biosciences of San Jose, California The IC50 calculated based on the results of this assay are provided in TABLE XII.

SMILES | IC50 | IC50 (Homo sapiens, Ramos)
CC(C)(Oc1ccc(Nc2nc(Nc3ccc(S(N)(=O)=O)cc3)ncc2F)cc1)C(N)=O [Compound I-125, N4-[4-(1-Aminocarbonyl-1-methyl)ethoxy]phenyl-N2-(4-aminosulfonyl)phenyl-5-fluoro-2,4-pyrimidinediamine] | 538 nM | 
CN(C)C(=O)COc1ccc(Nc2nc(Nc3ccc(S(N)(=O)=O)cc3)ncc2F)cc1 [Compound I-128, N2-(4-Aminosulfonylphenyl)-N4-(4-dimethylaminocarbonylmethoxyphenyl)-5-fluoro-2,4-pyrimidinediamine] |  | 871 nM
CN(C)C(=O)COc1ccc(Nc2nc(Nc3cccc(S(N)(=O)=O)c3)ncc2F)cc1 [Compound I-129, N2-(3-Aminosulfonylphenyl)-N4-(4-dimethylaminocarbonylmethoxyphenyl)-5-fluoro-2,4-pyrimidinediamine] |  | 612 nM
CN(C)C(=O)COc1ccc(Nc2nc(Nc3ccc(Cl)c(S(N)(=O)=O)c3)ncc2F)cc1Cl [Compound I-140, N2-(3-Aminosulfonyl-4-chlorophenyl)-N4-(3-chloro-4-dimethylaminocarbonylmethoxyphenyl)-5-fluoro-2,4-pyrimidinediamine] |  | 388 nM
CNC(=O)COc1ccc(Nc2nc(Nc3ccc(S(N)(=O)=O)cc3)ncc2F)cc1 [Compound I-143, N2-(4-Aminosulfonylphenyl)-5-fluoro-N4-(4-methylaminocarbonylmethoxyphenyl)-2,4-pyrimidinediamine] |  | 1190 nM
CNC(=O)COc1ccc(Nc2nc(Nc3cccc(S(N)(=O)=O)c3)ncc2F)cc1 [Compound I-144, N2-(3-Aminosulfonylphenyl)-5-fluoro-N4-(4-methylaminocarbonylmethoxyphenyl)-2,4-pyrimidinediamine] |  | 1010 nM
CNC(=O)COc1ccc(Nc2nc(Nc3ccc(S(N)(=O)=O)cc3)ncc2F)cc1Cl [Compound I-146, N2-(4-Aminosulfonylphenyl)-N4-(3-chloro-4-methylaminocarbonylmethoxyphenyl)-5-fluoro-2,4-pyrimidinediamine] |  | 364 nM
CCN(CC)CCNS(=O)(=O)c1cccc(Nc2ncc(F)c(Nc3ccc(OCc4ccccn4)cc3)n2)c1 [Compound I-166, N2-[3-(2-N,N-Diethylaminoethyl)aminosulfonylphenyl)-5-fluoro-N4-[4-(2-pyridinyl)methyleneoxyphenyl]-2,4-pyrimidinediamine] | 616 nM | 
Cc1cc(Nc2nc(Nc3cccc(S(N)(=O)=O)c3)ncc2F)ccc1OCc1ccccn1 [Compound I-167, N2-(3-Aminosulfonylphenyl)-5-fluoro-N4-[(4-((pyridin-2-yl)methoxy)-3-methylphenyl)]-2,4-pyrimidinediamine] |  | 142 nM
CCOc1cc(Nc2nc(Nc3ccc(C)c(S(=O)(=O)NC)c3)ncc2F)ccc1-c1ccccn1 [Compound I-170, 5-Fluoro-N2-[3-N-(methyl)aminosulfonyl-4-methylphenyl]-N4-[4-(2-pyridinyl)-3-methylmethyleneoxyphenyl]-2,4-pyrimidinediamine] | 451 nM | 
Cc1cnc(Nc2ccc(S(N)(=O)=O)cc2)nc1Nc1ccc(OCc2ccccn2)cc1 [Compound I-181, N2-(4-Aminosulfonylphenyl)-5-methyl-N4-[4-(2-pyridinyl)methyleneoxyphenyl]-2,4-pyrimidinediamine] | 13 nM | 
NS(=O)(=O)c1ccc(Nc2ncc(F)c(Nc3cccc(OCc4cccnc4)c3)n2)cc1 [Compound I-185, N2-(4-Aminosulfonylphenyl)-5-fluoro-N4-[3-(3-pyridinyl)methyleneoxyphenyl]-2,4-pyrimidinediamine] | 298 nM | 
CCN(CC)CCNS(=O)(=O)c1cccc(Nc2ncc(F)c(Nc3cccc(OCc4cccnc4)c3)n2)c1 [Compound I-187, N2-[3-(2-N,N-Diethylaminoethyl)aminosulfonylphenyl)-5-fluoro-N4-[3-(3-pyridinyl)methyleneoxyphenyl]-2,4-pyrimidinediamine] | 2910 nM | 
Cc1ccc(Nc2ncc(F)c(Nc3ccc(OCc4n[nH]c(=O)[nH]4)cc3)n2)cc1S(N)(=O)=O [Compound I-202, N2-(3-Aminosulfonyl-4-methylphenyl)-5-fluoro-N4-[4-(2,4-dihydro-3-oxo-1,2,4-triazol-5-yl)methyleneoxyphenyl]-2,4-pyrimidinediamine] | 3080 nM | 
NS(=O)(=O)c1cccc(Nc2ncc(F)c(Nc3ccc(OCCN4CCOCC4)cc3)n2)c1 [Compound I-206] | 726 nM | 
Cc1ccc(Nc2nc(Nc3cccc(S(N)(=O)=O)c3)ncc2F)cc1OCC(=O)N1CCOCC1 [Compound I-208, N2-(3-Aminosulfonylphenyl)-5-fluoro-N4-[4-methyl-3-(2-morpholinocarbonylmethyleneoxy)phenyl]-2,4-pyrimidinediamine] | 1400 nM | 
NS(=O)(=O)c1ccc(Nc2ncc(F)c(Nc3ccc(OCC(=O)N4CCOCC4)cc3)n2)cc1 [Compound I-210, N2-(4-Aminosulfonylphenyl)-5-fluoro-N4-[4-(2-morpholin-4-yl-2-oxo-ethoxy)phenyl]-2,4-pyrimidinediamine] |  | 866 nM
NS(=O)(=O)c1cccc(Nc2ncc(F)c(Nc3ccc(OCC(=O)N4CCOCC4)cc3)n2)c1 [Compound I-211, N2-(3-Aminosulfonylphenyl)-5-fluoro-N4-[4-(2-morpholin-4-yl-2-oxo-ethoxy)phenyl]-2,4-pyrimidinediamine] |  | 1050 nM
Cc1ccc(Nc2ncc(F)c(Nc3ccc(OCC(=O)N4CCOCC4)cc3)n2)cc1S(N)(=O)=O [Compound I-212, N2-(3-Aminosulfonyl-4-methylphenyl)-5-fluoro-N4-[4-(2-morpholin-4-yl-2-oxo-ethoxy)phenyl]-2,4-pyrimidinediamine] |  | 758 nM
CCC(=O)NS(=O)(=O)c1cc(Nc2ncc(F)c(Nc3ccc(OCC(=O)OC)cc3)n2)ccc1C [Compound I-213, 5-Fluoro-N4-(4-methoxycarbonylmethoxyphenyl)-N2-(4-methyl-3-propionylaminosulfonylphenyl)-2,4-pyrimidinediamine] |  | 11500 nM
COC(=O)CNS(=O)(=O)c1cccc(Nc2ncc(F)c(Nc3ccc(OCc4cc(C)on4)cc3)n2)c1 [Compound I-215, 5-Fluoro-N2-[3-(N-methoxycarbonylmethylene)aminosulfonylphenyl]-N4-[4-(5-methylisoxazol-3-yl)methyleneoxyphenyl]-2,4-pyrimidinediamine] | 976 nM | 
Cc1cc(COc2ccc(N(C)c3nc(Nc4ccc(C)c(S(N)(=O)=O)c4)ncc3F)cc2)no1 [Compound I-225, N2-(3-Aminosulfonyl-4-methylphenyl)-5-fluoro-N4-methyl-N4-[4-(5-methylisoxazol-3-yl)methyleneoxyphenyl]-2,4-pyrimidinediamine] | 700 nM | 
Cc1cc(COc2ccc(N(C)c3nc(Nc4ccc(C)c(S(N)(=O)=O)c4)ncc3F)cc2F)no1 [Compound I-226, N2-(3-Aminosulfonyl-4-methylphenyl)-5-fluoro-N4-[3-fluoro-4-(5-methylisoxazol-3-yl)methyleneoxyphenyl]-N4-methyl-2,4-pyrimidinediamine] | 498 nM | 
COC(=O)CN(c1ccc(OCc2cc(C)on2)cc1)c1nc(Nc2ccc(C)c(S(N)(=O)=O)c2)ncc1F [Compound I-227, N2-(3-Aminosulfonyl-4-methylphenyl)-5-fluoro-N4-methoxycarbonylmethyl-N4-[4-(5-methylisoxazol-3-yl)methyleneoxyphenyl]-2,4-pyrimidinediamine] | 1480 nM | 
CCC(=O)NS(=O)(=O)c1cc(Nc2ncc(F)c(Nc3ccc(OCc4cc(C)on4)cc3)n2)ccc1C [Compound I-228, 5-Fluoro-N4-[4-(5-methylisoxazol-3-yl)methyleneoxyphenyl]-N2-(4-methyl-3-propionylaminosulfonylphenyl)-2,4-pyrimidinediamine] | 3810 nM | 
Cc1cc(COc2ccc(Nc3nc(Nc4ccc(C)c(S(=O)(=O)NC(=O)C(C)C)c4)ncc3F)cc2)no1 [Compound I-229, 5-Fluoro-N4-[4-(5-methylisoxazol-3-yl)methyleneoxyphenyl]-N2-(4-methyl-3-(2-methylpropionyl)aminosulfonylphenyl)-2,4-pyrimidinediamine] | 3760 nM | 
CC(=O)NS(=O)(=O)c1cccc(Nc2ncc(F)c(Nc3ccc(OCc4cc(C)on4)cc3)n2)c1 [Compound I-232, N2-(3-Acetamidosulfonylphenyl)-5-fluoro-N4-[4-(5-methylisoxazol-3-yl)methyleneoxyphenyl]-2,4-pyrimidinediamine] | 1430 nM | 
